Patent US10781229B2, “Tris- or neopentyl glycol-based amphiphiles and uses thereof” (Industry-University Cooperation Foundation Hanyang …, priority 2015, dated 2020)

Assays:
MelBEc = molecular target: T1, MelBEc (Escherichia coli, UniProt P02921); assay: Trp to D2G FRET reversal by melibiose, functional state of solubilized MelBEc; type: biochemical; conditions: 1.0% by weight, solubilized at 23° C. for 30 minutes
T1 construct: made in house; host or cells: E. coli DW2, right-side-out membrane vesicles
Protocol: (§1) So as to investigate functional states of MelB proteins dissolved by amphipathic molecules, Førster resonance energy transfer (FRET) to 2′-(N-dansyl)aminoalkyl-1-thio-β-D-galactopyranoside (D^2G), as a fluorescence ligand, was measured in tryptophan (Trp). […] However, if a protein dissolved by an amphipathic molecule has activity, melibiose substitutes for the coupled D^2G molecule upon addition of the melibiose and thus energy transfer no longer occurs, thereby decreasing fluorescence intensity. Accordingly, the activity of the MelB protein dissolved in DDM or NDT-C11 can be determined by whether reversal of D^2G FRET occurs due to melibiose in Trp. Therefore, the FRET measurement method is an efficient method to measure the membrane protein structural stabilization ability of an amphipathic molecule.
(§2) In particular, a right-side-out (RSO) membrane vesicle was prepared by osmotic lysis of an E. coli DW2 cell containing MelBSt or MelBEc and re-suspended with 100 mM KPi (pH 7.5), followed by storing at −80° C. D^2G was provided by H. Ronald Kaback and Gerard Leblanc. A protein concentration of an RSO membrane vesicle in 100 mM KPi, pH 7.5, and 50 mM NaCl was 1 mg/ml concentration. […] An emission wavelength of MelBEc was measured at 465 nm and an emission wavelength of MelBSt was measured at 490 nm. […] Accordingly, fluorescence intensity is decreased. […]

MelBSt = molecular target: T2, MelBSt (Salmonella typhimurium, UniProt P30878); assay: Trp to D2G FRET reversal by melibiose, functional state of solubilized MelBSt; type: biochemical; conditions: 1.0% by weight, solubilized at 23° C. for 30 minutes
T2 construct: made in house; host or cells: E. coli DW2, right-side-out membrane vesicles
Protocol: as §1, §2

[1] = tested on: leucine transporter (LeuT); assay: LeuT stability by [3H]-Leu scintillation proximity assay (SPA); type: biochemical, Aquifex aeolicus
Protocol: Experiments to measure the structural stability of a leucine transporter (LeuT) protein by TDTs or NDTs were conducted. LeuT protein activity was measured by scintillation proximity assay (SPA) utilizing [^3H]-Leu as a ligand. The concentration of TDTs, NDTs, or DDM was (a) CMC+0.04% by weight, or (b) CMC+[…].
In particular, the LeuT stability measurement experiments were conducted according to the following methods. Depending upon the results of UapA and MelB, only TDT-C11, TDT-C12, NDT-C10, NDT-C11 and NDT-C12 among the amphipathic molecules according to the present invention were selectively used. In accordance with a method disclosed in a paper published by G. Deckert, et al. (Nature 1998, 392, 353-358), a wild-type leucine transporter (LeuT) was purified from Aquifex aeolicus. LeuT is expressed in E. coli C41 (DE3) transformed with pET16b encoding a C-terminal 8×His-tagged transporter (the expression plasmid was provided by Dr E. Gouaux, Vollum Institute, Portland, Oreg., USA). In summary, the […] protein was isolated and solubilized with 1.0% by weight of DDM, followed by binding the protein to a Ni^2+-NTA resin (Life Technologies, Denmark) and eluting the same with 20 mM Tris-HCl (pH 8.0), 1 mM NaCl, 199 mM KCl, 0.05% DDM, and 300 mM imidazole. Next, about 1.5 mg/ml of a protein stock was 10-fold diluted with a buffer in which DDM and imidazole are absent, but TDTs, NDTs, or DDM (control) is supplemented such that a final concentration becomes CMC+0.04% by weight or CMC+0.2% by weight. Protein samples were stored at room temperature and centrifuged at a predetermined time. To evaluate protein activity, [^3H]-Leu coupling was measured using scintillation proximity assay (SPA) (M. Quick et al., Proc. Natl, Acad. Sci. U.S.A. 2007, 104, 3603-3608). 5 μL of each protein sample dissolved in a buffer that contained 200 mM NaCl and each test compound was analyzed. SPA reaction was carried out in the presence of 20 nM [^3H]-Leu and copper chelate (His-Tag) YSi beads (both purchased from PerkinElmer, Denmark). [^3H]-Leu coupling was measured by means of a MicroBeta liquid scintillation counter (PerkinElmer).

T1 sequence (P02921 whole entry): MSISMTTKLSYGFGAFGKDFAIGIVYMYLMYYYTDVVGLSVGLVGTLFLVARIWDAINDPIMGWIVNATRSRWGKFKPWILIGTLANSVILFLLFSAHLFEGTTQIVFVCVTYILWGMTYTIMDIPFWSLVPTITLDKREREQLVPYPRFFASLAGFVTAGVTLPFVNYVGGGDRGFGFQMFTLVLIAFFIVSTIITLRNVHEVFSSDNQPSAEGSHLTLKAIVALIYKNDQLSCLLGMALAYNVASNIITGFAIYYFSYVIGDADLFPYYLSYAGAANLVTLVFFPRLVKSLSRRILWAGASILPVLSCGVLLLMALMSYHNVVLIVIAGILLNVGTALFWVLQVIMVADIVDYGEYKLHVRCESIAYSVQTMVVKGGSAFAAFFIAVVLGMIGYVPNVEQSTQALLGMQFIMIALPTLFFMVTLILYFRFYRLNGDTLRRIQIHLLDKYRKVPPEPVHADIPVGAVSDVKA
T2 sequence (P30878 whole entry): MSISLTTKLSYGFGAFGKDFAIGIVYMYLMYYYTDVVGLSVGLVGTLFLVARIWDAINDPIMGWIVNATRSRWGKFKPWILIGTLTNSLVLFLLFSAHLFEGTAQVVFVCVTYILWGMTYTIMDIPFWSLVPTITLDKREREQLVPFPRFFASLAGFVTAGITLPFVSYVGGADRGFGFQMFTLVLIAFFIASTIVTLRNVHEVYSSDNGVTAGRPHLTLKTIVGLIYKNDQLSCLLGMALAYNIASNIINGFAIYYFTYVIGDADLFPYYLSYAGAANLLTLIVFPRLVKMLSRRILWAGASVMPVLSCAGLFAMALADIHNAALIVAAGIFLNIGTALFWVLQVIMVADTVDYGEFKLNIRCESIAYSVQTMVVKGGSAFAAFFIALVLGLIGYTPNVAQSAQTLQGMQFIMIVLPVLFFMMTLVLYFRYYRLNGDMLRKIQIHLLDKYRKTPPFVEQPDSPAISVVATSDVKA

Compound	Functional state of solubilized MelBEc (melibiose binding, FRET) (MelBEc)	Functional state of solubilized MelBSt (melibiose binding, FRET) (MelBSt)	LeuT protein stabilization ability ([3H]-Leu binding) ([1]; CMC+0.04% by weight, room temperature)	LeuT protein stabilization, overall comparison ([1]; conclusion)
CCCCCCCCCCCCOC1OC(CO)C(OC2OC(CO)C(O)C(O)C2O)C(O)C1O [DDM, n-dodecyl-β-D-maltopyranoside, reference compound]	completely lost	enable production of functional MelBSt proteins		
CCCCCCCCCCCC(CCCCCCCCCCC)COCC(CO[C@@H]1OC(CO)[C@@H](O)C(O)C1O)(CO[C@@H]1OC(CO)[C@@H](O)C(O)C1O)CO[C@@H]1OC(CO)[C@@H](O)C(O)C1O (stereo partly drawn) [NDT-C11]	effectively maintained	enable production of functional MelBSt proteins	most excellent	superior to DDM and similar to MNG-3
